Experimental data from paper PMC314469, “Protein Interaction Networks by Proteome Peptide Scanning” (PLoS Biology, 2004).

test system: Myo5 SH3 domain; experiment: SPOT analysis of cellulose-bound peptides (WISE), Myo5 SH3 domain (Dataset S4); type: binding, Saccharomyces cerevisiae; conditions: SPOT analysis of cellulose-bound 14-mer yeast proteome peptides, Myo5 SH3 domain; normalized value; mean where the peptide was synthesized more than once

In order of rising “The normalized value in BLU units” value:
1. SAENLIQPTAPIRD  56.4 BLU
2. SANNYPFPQQPNGM  79.6 BLU
3. QFSGLLEPSLPNNM  84.4 BLU
4. PPKLLVYPESPETN  91.3 BLU
5. RAAGMDVPIIPGIM  98.2 BLU
6. RLQKLDDPKSPYQC  127.2 BLU
7. QPAQFMPPQDPAAA  133.5 BLU
8. REDAHEDPVSPKAG  144.8 BLU
9. PPPDFNDPTAPLSS  152.8 BLU
10. QFQKLVPPTLPENV  153.9 BLU
11. QEISLIDPSTPDKA  155.1 BLU
12. RFHVFCEPILPSVA  158.0 BLU
13. SASTMAAPVHPQQQ  164.3 BLU
14. REASLDIPYKPIIA  176.1 BLU
15. QLVTLISPYDPNFK  177.5 BLU
16. RLLALFIPALPFII  264.8 BLU
17. RLNSFAPPPNPYAT  273.6 BLU
18. QLRSLFKPFGPILN  369.9 BLU
19. PYMYKYLPRFPNLK  382.1 BLU
20. SEAKRKFPEAPEVP  392.6 BLU
21. RLFDLVKPKNPKFS  441.1 BLU
22. RLSLLRSPKAPDAH  442.3 BLU
23. PSRSKSNPILPIMR  522.7 BLU
24. RFSSRRAPIAPSGK  564.4 BLU
25. RRLKKNLPSLPTPV  823.8 BLU
26. RERPLEPPRKPMAS  967.3 BLU
27. PLTTLPPPRLPSIQ  2788.2 BLU
28. PPMAYNRPVYPPPQ  6717.1 BLU
29. SAFPYVFPLPPWIP  12966.5 BLU
30. RPPSHSAPYIPRSS  47448.0 BLU
31. QPQHLPPPPPPRAQ  76158.3 BLU

same assay, conditions: SPOT analysis of cellulose-bound peptides probed with Myo5 SH3 domain; normalized value

In order of falling “The normalized value in BLU units (SPOT analysis, Myo5 SH3)” value:
1. PPPPPPPPPVPA  95729 BLU
2. PPPPLPPPLFPSSS  38483.6 BLU
3. QASMLRRPSLPHID  1102.4 BLU
4. RLWLYAAPKRPKTF  845.1 BLU
5. RPSKFFHPPIPHIP  776.9 BLU
6. RLTNFEVPSLPTFH  319.1 BLU
7. PPPPMGQPKDPKFE  248.1 BLU
8. RPQWLSYPEQPLNS  241.0 BLU
9. QENPYIIPLPPSST  240.4 BLU
10. QPTNFQYPPPPFGQ  224.1 BLU
11. PPQTHQSPPPPPQQ  222.2 BLU
12. SAYYLGLPVTPEDM  215.1 BLU
13. PPLDFEQPRLPSTA  192.3 BLU
14. QPQAYHLPGNPYST  187.4 BLU
15. REFEFIIPVFPVIC  163.2 BLU
16. QELPMEVPKEPAPA  138.8 BLU
17. QPAQLQEPQEPLST  125.9 BLU
18. QFSPMDDPKSPTPM  121.0 BLU
19. QELRFLVPLVPLLV  119.1 BLU
20. REVDLPIPAQPGPP  114.0 BLU
21. SELTFIAPTQPVST  110.5 BLU
22. SATGWLKPAVPIQW  94.6 BLU
23. PPEGFPEPLNPTNF  86.0 BLU
24. QLIGFGNPKNPFAL  46.1 BLU

same assay, conditions: SPOT analysis of membrane-bound peptides, Myo5 SH3 domain; normalized value (see methods)

In order of falling “The normalized value in BLU units” value:
1. PPPPRRGPAPPPPP  15026.4 BLU
2. SANGKFIPSRPAPK  6758.2 BLU
3. RTFFKLPPNLPEAE  2608.2 BLU
4. RRRTRLRPPTPLSQ  1508.6 BLU
5. RRHNRQHPPYPHSG  1287.6 BLU
6. RMQQKNSPAFPTHS  1283.9 BLU
7. RLLFRSLPPHPACL  745.7 BLU
8. PPRFKNFPTLPSKI  634.0 BLU
9. PRSKKKKPAPPTLL  412.9 BLU
10. RKSDKNAPSVPQVD  394.6 BLU
11. RRIRKEHPGEPNVI  308.3 BLU
12. PSSHKRKPVIPWDA  289.2 BLU
13. RLVSKYRPNCPIIL  286.2 BLU
14. RAGNREPPSTPSTL  273.8 BLU
15. QLQEKLSPDLPDEE  216.1 BLU
16. PTVQKFSPHPPTTL  213.4 BLU
17. QSINRSIPSAPYGA  208.2 BLU
18. QSEEKEKPKGPMAV  197.3 BLU
19. PTANKYAPVSPTVQ  191.4 BLU
20. RYCFKLLPPQPGSK  189.7 BLU
21. REGPKSCPRGPLCP  188.5 BLU
22. PVPVRMQPQPPQPM  187.8 BLU
23. RTPSKPDPMEPENT  186.9 BLU
24. PQQNRPLPQLPNRN  186.1 BLU
25. PSHYRNIPYNPATF  174.8 BLU
26. RDDVKRTPFIPESV  171.1 BLU
27. PNPLKKAPIPPLAY  137.2 BLU
28. RLPSKTDPLDPHIK  129.4 BLU
29. QSKTKPLPVEPASP  122.1 BLU
30. QELPRAIPVMPFVD  118.1 BLU
31. QFALKNTPITPGSC  111.3 BLU

same assay, conditions: SPOT analysis of membrane-synthesized peptides probed with Myo5 SH3 domain; normalized value

In order of rising “The normalized value in BLU units (SPOT analysis, Myo5 SH3)” value:
1. QTGSKTVPQAPQAP  62.9 BLU
2. REYIKSLPMYPAAP  70.4 BLU
3. PSSKKNKPNPPPGS  106.9 BLU
4. SDNSKSEPLPPVIT  130.5 BLU
5. PPNYKQQPNCPSSN  147.5 BLU
6. PPSIRKQPIAPDVL  150.3 BLU
7. QVYEKTIPLFPPEI  153.0 BLU
8. QPPDRNLPSHPSSN  155.8 BLU
9. QGSNKYSPSSPLTT  171.4 BLU
10. QTVIKTHPRIPKSE  186.2 BLU
11. RPVYRLKPNAPFQY  209.8 BLU
12. QRLDRDKPHEPNGY  217.9 BLU
13. QIVNKPLPPLPVAG  248.9 BLU
14. QNGLRFNPDVPKLW  260.1 BLU
15. PPQMRSNPQQPPQD  268.2 BLU
16. RFWTRARPIDPNAY  279.1 BLU
17. RLVNKLLPPHPFAD  289.2 BLU
18. QWSKRIMPYIPGPV  295.5 BLU
19. RLLSKYRPSCPIIL  336.6 BLU
20. RLIKRLKPPAPKEP  403.1 BLU
21. QLINRFMPHFPSSP  518.2 BLU
22. RIRDKSKPSSPTAT  546.8 BLU
23. PSAMKLVPSIPPAT  561.3 BLU
24. QATGRRGPAPPPPP  607.2 BLU
25. RSRSKKDPGIPSNF  800.0 BLU
26. RGWQRFLPTGPIAH  802.1 BLU
27. QHKPKVKPSKPEAK  956.3 BLU
28. PVRCRVLPATPRQI  1474.0 BLU
29. RHSKKPAPPPPGMQ  1938.6 BLU
30. RRKLRTVPGVPLIH  2011.1 BLU
31. PQTMRQAPKRPDAD  3257.1 BLU
32. RYPFRMIPELPPKR  3574.9 BLU
33. PPLPRAPPVPPATF  35914.7 BLU
34. RPKRRAPPPVPKKP  67429.7 BLU
